The subject of test [1] is circulating leukocytes. The test can be described thus: In Vivo Model for Leukocytosis. Particulars: bled 1-1.5 h after administration. Also on record: species or system Balb/c mice. From the text:
In Vivo Model for Leukocytosis
Leukocytosis is the increase in circulating white blood cells (leukocytes). This can be brought about by preventing leukocyte binding to counter-receptor adhesion molecules expressed on high endothelial venules. This cell adhesion occurs between immunoglobulin superfamily molecules and integrins. Relevant examples of these paired interactions include […] Adhesion Molecule-1 and AlphaL Beta2 integrin, Vascular Cell Adhesion Molecule-1 and α4β1 integrin, and Mucosal Addressin Cell Adhesion Molecule-1 and α4β7 integrin, respectively.
In this model, a compound that antagonizes these leukocyte-endothelial interactions will cause an increase in circulating leukocytes, defined as leukocytosis, as measured at 1-1.5 h post-administration. This leukocytosis is indicative that normal lymphocyte or leukocyte emigration from the peripheral circulation was prevented. Similar emigration of cells out of the circulation into inflamed tissues is responsible for the progression and maintainance of the inflammatory state. Leukocytosis is an indication that lymphocyte and leukocyte extravasation is prevented, and is predictive of general anti-inflammatory activity.
One week prior to being tested, 7-10 week old female Balb/c mice, n=8 per group, were bled and randomized according to leukocyte counts. One week later, the mice were adminstered test compound orally or subcutaneously and then bled 1-1.5 h after drug administration, approximately 1 h after the peak blood concentration of the compound occurred. Whole blood, 250-350 microliters, was collected from each mouse into potassium-EDTA serum collection tubes (Becton-Dickenson) and mixed to prevent clotting.
Cell counts and differential counts on the whole blood preparation were performed using an Advia 120 Hematology System (Bayer Diagnostics). Cell counts as total leukocytes and as total lympohcytes were made and compared to counts made from mice dosed with vehicle only. Data were reported as percent of vehicle control for lymphocyte counts and total leukocyte counts.
Statistical analyses were performed using ANOVA with Dunnet's multiple comparison test.

The test system of test [2] is eosinophil peroxidase levels in ear punches. The test can be described thus: PMA-Induced Inflammation in Mouse Ear Skin and Measurement of Eosinophil Peroxidase. It is filed as in vivo, BALB/C mice. To be noted: total dose 40 mg/kg po bid; ear punches 24 h after PMA. The protocol: Phorbol 12-Myristate 13-Acetate (PMA)-Induced Inflammation in Mouse Ear Skin and Measurement of Eosinophil Peroxidase
Phorbol 12-myristate 13-acetate (PMA) when applied to skin, generates a vigorous recruitment of immune cells to the site of application. Over a 24 hour period, there is accumulation of fluid and cells to the inflamed site, and thus is a general indicator of an inflammatory response. Among the recruited cells are eosinophils and neutrophils. Eosinophils can migrate into an inflamed or infected tissue via alpha 4 beta 1 integrin interactions with vascular cell adesion molecule-1 (VCAM-1) counter-receptors on vascular endothelial cells, and via alpha 4 beta 7 integrin to mucosal addressin cellular adhesion molecule on vascular endothelial cells in the gastrointestinal tract and mesenteric system. The recruited esoinophils can be quantified by measuring the presence of eosinophil peroxidase in a sample of the homogenized tissue.
Female BALB/C mice are ordered at 6 weeks of age and 16-18 grams from Charles River were used between 6-10 weeks of age. The animals were randomly assigned to groups of 10 (5/box) and housed in groups in plastic cages in a room with 12 h light-dark cycle and controlled temperature and humidity. They received food and water ad libitum.
Phorbol 12-myristate 13-acetate (PMA) was dissolved as 5 mg per mL stock in dimethyl sulfoxide (DMSO) and stored frozen as 20 microliter aliquots. For application to mouse ears, each aliquot was diluted in 2 mL with acetone.
The right ear of each mouse was treated topically with 20 microliters of acetone solution (10 microliters to each side of the ear) containing either 1 microgram of phorbol 12-myristate 13-acetate (PMA) or acetone alone.
Drugs that were tested orally were administered at −1 and +3 hours relative to PMA application.
Mice were sacrificed 24 h after PMA application. The right ear was punched with a 6 mm tissue punch and the tissue was placed in a tube on dry ice and kept frozen until extraction.
One tablet of phosphate citrate buffer was dissolved with urea hydrogen peroxide in 100 ml of water in which one tablet containing 60 mg of o-phenylenediaminedihydrochloride was added.
Ear tissue samples were homogenized in 2 ml of HTAB for 15 sec at speed 5.5 with a Polytron (large head) (Brinkman Instruments). The homogenate was stored at −20° C. until assayed. […]
Samples were typically tested at either a 1:2 or 1:4 dilution made with HTAB. […] Absorbance was read at 490 nm for the specific with subtraction of a 650 nm noise signal using a Thermomax 96-well spectrophotmetric plate reader (Molecular Devices). […]
The inhibition of PMA-induced ear edema was measured by eosinophil peroxidase levels in ear punches. […]

For the molecule `COc1cnn(C)c(=O)c1-c1ccc(C[C@H](NC(=O)c2c(Cl)cccc2Cl)C(=O)O)cc1` [Cpd 17], the entries for the “Lymphoycte Counts % of Vehicle Control” value in test [1] (3 mg/kg sc), in test [1] (10 mg/kg sc) and in test [1] (30 mg/kg sc) were 145.3%, 191.7% and 220.2%, respectively. Moreover, the results for the “Total Leukocyte Count % of Vehicle Control” value in test [1] (3 mg/kg sc), in test [1] (10 mg/kg sc) and in test [1] (30 mg/kg sc) were 143.3%, 198.7% and 264.5%, respectively. Besides, in test [2], the “% Inh. of Eosinophil Peroxidase” value worked out at 34.9%.

On to `COc1cnn(C)c(=O)c1-c1ccc(C[C@H](NC(=O)[C@@H]2C3CCC(CC3)N2C(=O)CCc2ccccc2)C(=O)O)cc1` [Cpd 89, 3-[4-(5-Methoxy-2-methyl-3-oxo-2,3-dihydro-pyridazin-4-yl)-phenyl]-2(S)-{[2-(3-phenyl-propionyl)-2-aza-bicyclo[2.2.2]octane-3(S)-carbonyl]-amino}-propionic acid], for which the “% Inh. of Eosinophil Peroxidase” value in test [2] amounted to 43.5%.

Regarding `COc1cnn(CCO)c(=O)c1-c1ccc(C[C@H](NC(=O)OC(C)(C)C)C(=O)O)cc1` [Cpd 120], the results for the “Lymphoycte Counts % of Vehicle Control” value in test [1] (3 mg/kg sc), in test [1] (10 mg/kg sc) and in test [1] (30 mg/kg sc) were 104.3%, 112.8% and 80.0%, respectively. Further, the “Total Leukocyte Count % of Vehicle Control” value in test [1] (3 mg/kg sc) amounted to 91.8%; in test [1] (10 mg/kg sc), 101.7%; in test [1] (30 mg/kg sc) it was 78.0%.

On to `COC(=O)[C@H](Cc1ccc(-c2c(OC)cnn(C)c2=O)cc1)NC(=O)c1c(Cl)cccc1Cl` [Cpd 151], for which the “% Inh. of Eosinophil Peroxidase” value in test [2] worked out at 26.5%.

The record behind these values is US20050192279A1, “Pyridazinones as antagonists of alpha4 integrins” (priority 2004, published 2005).
